Experimental findings from US9469597B2, “(Hetero)aryl cyclopropylamine compounds as LSD1 inhibitors” (ORYZON GENOMICS, S.A., priority 2011, dated 2016) are described below.

In assay [1] the target is Human recombinant monoamine oxidase MAO-A (Homo sapiens (Human), UniProt P21397). The experiment in a line: Monoamine oxidase assay (kynuramine to 4-hydroxyquinoline fluorescence), MAO-A. It is filed as biochemical. To be noted: for Ki: Table 1, term Ki value used as designation for the IC50 value; for IC50: Table 2. The source says:
(§1) Human recombinant monoamine oxidase proteins MAO-A and MAO-B were purchased from Sigma Aldrich. MAOs catalyze the oxidative deamination of primary, secondary and tertiary amines. In order to monitor MAO enzymatic activities and/or their inhibition rate by inhibitor(s) of interest, a fluorescence-based (inhibitor)-screening assay was set up. 3-(2-Aminophenyl)-3-oxopropanamine (kynuramine dihydrobromide, Sigma Aldrich), a non fluorescent compound was chosen as a substrate. Kynuramine is a non-specific substrate for both MAO-A and MAO-B activities. While undergoing oxidative deamination by MAO activities, kynuramine is converted into 4-hydroxyquinoline (4-HQ), a resulting fluorescent product.
(§2) The monoamine oxidase activity was estimated by measuring the conversion of kynuramine into 4-hydroxyquinoline. Assays were conducted in 96-well black plates with clear bottom (Corning) in a final volume of 100 μL. The assay buffer was 100 mM HEPES, pH 7.5. Each experiment was performed in duplicate within the same experiment.
Clorgyline and Deprenyl (Sigma Aldrich) was used as a control for specific inhibition of MAO-A and MAO-B respectively.
After leaving the enzyme(s) interacting with the inhibitor, KM of kynuramine was added to each reaction for MAO-B and MAO-A assay respectively, and the reaction was left for 1 hour at 37° C. in the dark. The oxidative deamination of the substrate was stopped by adding 50 μL of NaOH 2N.
(§3) The IC50 values of each inhibitor were calculated with GraphPad Prism Software.

Assay [2] concerns the target Human recombinant monoamine oxidase MAO-B (Homo sapiens (Human), UniProt P27338). Briefly: Monoamine oxidase assay (kynuramine to 4-hydroxyquinoline fluorescence), MAO-B. The settings on record: Table 2. The assay is classed as biochemical.
Source text: as §1, §2
Clorgyline and Deprenyl (Sigma Aldrich) was used as a control for specific inhibition of MAO-A and MAO-B respectively. […]
as §3

The next assay has as its system THP-1 cells. The experiment in a line: Induction of differentiation of THP-1 leukemia cells (CD11b membrane expression, flow cytometry). The assay is classed as cell-based, human. To be noted: at 100 nM, 96 h treatment. The method, then:
By analyzing the induction of CD11b membrane expression on THP-1 cells we are assessing the ability of LSD1 inhibitors to induce terminal monocytic differentiation of a MLL-AF9 AML cell line. […] They carry t(9;11)(p21;q23) leading to MLL-MLLT3 (MLL-AF9) fusion gene. This cell line can undergo monocytic differentiation upon treatment with the appropriate stimulus. […] In this assay, 150,000 THP-1 cells were seeded in 1 ml of complete culture medium in 6-well tissue culture plates. […] Cells were kept in the presence of test compound for 96 h at a 5% CO2 atmosphere at 37° C. After this treatment period, cells were harvested, washed twice with PBS buffer and placed in a V-bottom 96-well plate. Each treated sample was split in two. […] Percentage of CD11b positive cells, as an indicator of monocytic differentiation, was determined compared to isotype control antibody stained cells. EC50 values were calculated by non-linear regression analysis.
A general note: Flow cytometry measures light scatter and fluorescence of single cells or particles in a stream.

Where a name gives a salt, the structure may show the parent alone.

Chain of Human recombinant monoamine oxidase MAO-A (P21397 whole entry): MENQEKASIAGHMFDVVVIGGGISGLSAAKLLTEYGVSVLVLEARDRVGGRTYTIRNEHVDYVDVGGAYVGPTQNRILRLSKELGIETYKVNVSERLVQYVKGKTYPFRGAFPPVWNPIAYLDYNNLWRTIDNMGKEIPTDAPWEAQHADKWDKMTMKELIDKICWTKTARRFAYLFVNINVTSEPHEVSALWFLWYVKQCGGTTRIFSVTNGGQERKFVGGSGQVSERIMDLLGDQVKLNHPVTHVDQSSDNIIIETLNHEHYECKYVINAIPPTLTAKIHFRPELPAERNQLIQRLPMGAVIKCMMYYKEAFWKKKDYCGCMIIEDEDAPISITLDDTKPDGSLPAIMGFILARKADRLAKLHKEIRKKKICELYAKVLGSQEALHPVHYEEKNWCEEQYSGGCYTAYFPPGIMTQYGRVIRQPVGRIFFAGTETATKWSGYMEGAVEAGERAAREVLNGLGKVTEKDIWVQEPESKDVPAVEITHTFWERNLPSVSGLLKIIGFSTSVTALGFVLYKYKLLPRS

For the molecule `NC1CCC(N[C@H]2C[C@@H]2c2ccccc2)CC1` (mixture of isomers) [Example 1, N1-((trans)-2-phenylcyclopropyl)cyclohexane-1,4-diamine dihydrochloride], in assay [1], the Ki – broadly, a measure of affinity in units of concentration, obtained from inhibition or displacement – was greater than 40 µM and the IC50 (usually the concentration that inhibits the measured activity by half) was greater than 100 µM.

For `NC1CCC(N[C@@H]2C[C@@H]2c2ccccc2)CC1` (relative stereo) [Example 21, N1-((cis)-2-phenylcyclopropyl)cyclohexane-1,4-diamine], in assay [1], the IC50 was found to be 5.23 µM.

`COc1ccc(NS(C)(=O)=O)cc1-c1ccc([C@H]2C[C@@H]2NC2CCC(N)CC2)cc1` (relative stereo) [Example 48, N-(4′-((trans)-2-((4-aminocyclohexyl)amino)cyclopropyl)-6-methoxy-[1,1′-biphenyl]-3-yl)methanesulfonamide]: the half-maximal inhibitory concentration (IC50) in assay [2] was […].

As to `N[C@H]1CC[C@@H](N[C@H]2C[C@@H]2c2ccccc2)CC1` [Example 2, (cis)-N1-((1S,2R)-2-phenylcyclopropyl)cyclohexane-1,4-diamine hydrochloride], in assay [1], the inhibition constant Ki is greater than 40 µM and the half-maximal inhibitory concentration (IC50) was greater than 100 µM.

In the case of `Cl.N[C@H]1CC[C@H](N[C@H]2C[C@@H]2c2ccccc2)CC1` [Example 3, (trans)-N1-((1S,2R)-2-phenylcyclopropyl)cyclohexane-1,4-diamine hydrochloride], in assay [1], the Ki is greater than 40 µM and the IC50 is greater than 100 µM. Further, the “CD11b+ cells” value in the assay with THP-1 cells is 13% CD11b+ cells at 100 nM.

Turning to `N[C@H]1CC[C@@H](N[C@@H]2C[C@H]2c2ccccc2)CC1` [Example 4, (cis)-N1-((1R,2S)-2-phenylcyclopropyl)cyclohexane-1,4-diamine hydrochloride], in assay [1], the Ki was greater than 40 µM and the IC50 was greater than 100 µM.

For the molecule `N[C@H]1CC[C@H](N[C@@H]2C[C@H]2c2ccccc2)CC1` [Example 5, (trans)-N1-((1R,2S)-2-phenylcyclopropyl)cyclohexane-1,4-diamine hydrochloride], the concentration for half-maximal inhibition (IC50) in assay [1] was greater than 100 µM.
